Measured values taken from article PMC8536644, “Enigmatic mechanism of the N-vinylpyrrolidone hepatocarcinogenicity in the rat” (Archives of Toxicology, 2021).
Like-named read-outs stand apart in the source and are kept apart here.

What was measured:
[1] = tested on: polychromatic erythrocytes of rat bone marrow; test: Micronucleus test in rat bone marrow (OECD 474); settings: for MN/ 1000 PCE Mean ± SD / MN/ 1000 PCE Range / PCE/1000 Erythrozyten Mean ± SD / PCE/NCE quotient (%): 5 days
Method: 13-mm filter disks with a pore size of 8 µm were placed on the bottom of 5-mL plastic syringes. Approximately 500 mg of a mixture consisting of equal parts microcrystalline cellulose (Sigmacell®, Typ 50) and alpha-cellulose fibers was added up to the 2-mL mark.
Bone marrow preparation was performed according to published methods (Romagna and Staniforth [1989]; Salamone et al. [1980]). The soft tissue was removed from the femora and the epiphyses were cut off. The bone marrow was rinsed off the diaphyses with approximately 3 mL 37 °C-warm fetal calf serum (FCS) (Biochrom, Berlin, Germany) per femur, placed on the above-described cellulose column and eluted with 3 mL of Hank's Balanced Salt Solution (HBSS) (Biochrom, Berlin, Germany) (with Ca^2+ und Mg^2+). The eluate was centrifuged at 300 g for 5 min and the pellet was suspended in […] FCS. From this suspension three portions per femur were individually placed on slides, air-dried and then stained for 4 min in May-Grunwald solution 1 (Merck, Darmstadt, Germany), followed by 4 min in May–Grunwald solution 2 (May-Grunwald solution 1 diluted 1:1 with aqua bidest.), rinsed in aqua bidest and then stained with Giemsa solution (7.5% dilution derived from Giemsa obtained from Merck, Darmstadt, Germany) for 15 min. Subsequently, the slides were washed twice with aqua bidest, then dried, cleared in xylene and covered with Corbit-Balsam (I. Hecht, Kiel-Hasse, Germany).
2000 polychromatic erythrocytes (PCE) per animal (1000 per slide) were evaluated at 1000-fold magnification under immersion oil for the presence/absence of large and small micronuclei as well as the proportion of PCE among the total erythrocytes. Statistical significance of differences between treated versus untreated groups was evaluated by the one-sided Wilcoxon test (using the program MUKERN). The result is regarded as positive when the following criteria are fulfilled: 1.
2000 PCEs were analyzed for micronuclei per animal.

rat liver cells = test: Trypan Blue viability of the single cell suspension, liver; assay type: in vivo; settings: liver, 5 days, individual animals
Method: (§1) The organ parts (see above) were washed in mincing buffer (50 mM EDTA in HBSS [without Ca^2+ and Mg^2+] pH 7.5: DMSO 9:1 (v/v), the latter added shortly before use, stored at 4 °C), cut into 1 to 2-mm pieces in ice-cold mincing buffer and transferred to a cell sieve with 70-µm pores. The viability of the cell suspension was evaluated by the Trypan Blue Assay (Strober [2001]).

[2] = as above; assay type: in vivo, rat; settings: rat, inhaled
Method: as §1

C=CN1CCCC1=O [NVP, N-vinylpyrrolidone]
Mean number of micronuclei in PCE, range over groups ([1]; 5, 10, 20 ppm, male and female rats): 1.4 to 2.9 ‰
MN/ 1000 PCE Mean ± SD ([1]; 5 ppm inhalation, female): 1.4 ± 0.7 MN/ 1000 PCE
MN/ 1000 PCE Range ([1]; 5 ppm inhalation, female): 0.5–2.5 MN/ 1000 PCE
PCE/1000 Erythrozyten Mean ± SD ([1]; 5 ppm inhalation, female): 629 ± 18 PCE/1000 Erythrozyten
PCE/NCE quotient (%) ([1]; 5 ppm inhalation, female): 99%
MN/ 1000 PCE Mean ± SD ([1]; 5 ppm inhalation, male): 2.6 ± 0.9 MN/ 1000 PCE
MN/ 1000 PCE Range ([1]; 5 ppm inhalation, male): 1.5–4.0 MN/ 1000 PCE
PCE/1000 Erythrozyten Mean ± SD ([1]; 5 ppm inhalation, male): 609 ± 40 PCE/1000 Erythrozyten
PCE/NCE quotient (%) ([1]; 5 ppm inhalation, male): 100%
Increase in micronuclei in the PCE ([1]; 5 ppm, 10 ppm or 20 ppm): no significant increase
MN/ 1000 PCE Mean ± SD ([1]; 10 ppm inhalation, female): 1.7 ± 1.0 MN/ 1000 PCE
MN/ 1000 PCE Range ([1]; 10 ppm inhalation, female): 0.5–3.0 MN/ 1000 PCE
PCE/1000 Erythrozyten Mean ± SD ([1]; 10 ppm inhalation, female): 612 ± 44 PCE/1000 Erythrozyten
PCE/NCE quotient (%) ([1]; 10 ppm inhalation, female): 96%
MN/ 1000 PCE Mean ± SD ([1]; 10 ppm inhalation, male): 2.9 ± 1.9 MN/ 1000 PCE
MN/ 1000 PCE Range ([1]; 10 ppm inhalation, male): 1.5–6.5 MN/ 1000 PCE
PCE/1000 Erythrozyten Mean ± SD ([1]; 10 ppm inhalation, male): 622 ± 33 PCE/1000 Erythrozyten
PCE/NCE quotient (%) ([1]; 10 ppm inhalation, male): 102%
MN/ 1000 PCE Mean ± SD ([1]; 20 ppm inhalation, female): 2.3 ± 0.8 MN/ 1000 PCE
MN/ 1000 PCE Range ([1]; 20 ppm inhalation, female): 1.0–3.0 MN/ 1000 PCE
PCE/1000 Erythrozyten Mean ± SD ([1]; 20 ppm inhalation, female): 615 ± 48 PCE/1000 Erythrozyten
PCE/NCE quotient (%) ([1]; 20 ppm inhalation, female): 97%
MN/ 1000 PCE Mean ± SD ([1]; 20 ppm inhalation, male): 2.0 ± 0.9 MN/ 1000 PCE
MN/ 1000 PCE Range ([1]; 20 ppm inhalation, male): 0.5–3.0 MN/ 1000 PCE
PCE/1000 Erythrozyten Mean ± SD ([1]; 20 ppm inhalation, male): 553 ± 57 PCE/1000 Erythrozyten
PCE/NCE quotient (%) ([1]; 20 ppm inhalation, male): 90%
Micronuclei in normochromatic erythrocytes (NCE) ([1]; after exposure to NVP): no micronuclei were observed
Decrease of the ratio of PCE to NCE ([1]; high-dose (20 ppm) males vs vehicle control): 10%
Individual viability (%) (rat liver cells; female, no FPG, 10 ppm inhalation): 94%
Individual viability (%) (rat liver cells; male, Comet with FPG (Table 8), 10 ppm inhalation): 93%
Individual viability (%) (rat liver cells; male, no FPG, 5 ppm inhalation): 90%
Individual viability (%) (rat liver cells; male, no FPG, 10 ppm inhalation): 94%
viability at 5 days ([2]; both sexes, Wistar Crl:WI (Han), liver and lung single cell suspensions, either of the two organs (liver, lung) after NVP treatment, read-out: Viability (dye exclusion test)): > 90%
viability at 5 days ([2]; both sexes, Wistar Crl:WI (Han), liver single cell suspension, liver cells, NVP-exposed, read-out: Viability, range of the individual animals): 90 to 99%
viability at 5 days ([2]; female, Wistar, liver, 5 ppm, liver, female, Comet with FPG (Table 9), 5 ppm inhalation, 5 days, individual animals, read-out: Individual viability (%)): 99%
viability at 5 days ([2]; female, Wistar, liver, 5 ppm, liver, female, Comet with FPG (Table 9), 5 ppm inhalation, 5 days, read-out: Viability (%) (mean ± SD)): 99 ± 1%
viability at 5 days ([2]; female, Wistar, liver, 5 ppm, liver, female, no FPG, 5 ppm inhalation, 5 days, individual animals, read-out: Individual viability (%)): 98%
viability at 5 days ([2]; female, Wistar, liver, 5 ppm, liver, female, no FPG, 5 ppm inhalation, 5 days, read-out: Viability (%) (mean ± SD)): 97 ± 1%
